Patent US20030138935A1, “Selective deactivation of yeast in corn wet milling process slurries” (priority 2002, published 2003)
Values joined by “and” are separate entries in the source; they are usually repeats but may differ in a detail not shown here. Equal entries are not always repeated.

Legend:
[1] = test system: gas-producing microorganisms in corn wet milling heavy steepwater; assay: Flask Pressure Profile (gas production in heavy steepwater); assay type: cell-based, yeast; conditions: for Manometer readings: 100° F.
Description: All tests were conducted using heavy […] samples provided by a major U.S. corn wet milling facility. A Flask Pressure Profile method was developed and used to measure changes in gas production. The sample of heavy […] to an Erlenmeyer flask, then placed into a water bath at 100° F. and agitated slowly (30-40 rpm). The flask was connected to a U-tube manometer filled with distilled water. […] An increase in flask pressure indicated gas-producing microbial activity. Tests using octanoic acid were performed in […] ppm (control), 10 ppm, 25 ppm, and 50 ppm (active).

[2] = test system: yeast and mold; assay: Pour-plate culture on Potato-Dextrose Agar (PDA); assay type: cell-based; conditions: test concentrations from 10-50 ppm; 4 hour and 24 hour incubations
Description: (§1) All tests were conducted using heavy […] samples provided by a major U.S. corn wet milling facility. To confirm the concept that octanoic acid is selective in killing only yeast but not desirable bacteria, microbiological activity was assessed by examining separate culture plates prepared using two different agars. Plates prepared using Potato-Dextrose Agar (PDA) were used to assess the fate of yeast in the present of octanoic acid, as PDA is known to be specific to the propagation of yeast and mold. Plates prepared using Sabourad-Dextrose Agar (SDA) were used to determine the fate of “desired” bacteria as SDA is specific for both yeast and lactic acid producing bacteria. Several serial dilutions (10^1 to 10^7) of heavy […] samples were prepared for the pour plates at 0 ppm (control), 10 ppm, 25 ppm, and 50 ppm (active) of octanoic acid, then agitated in a 100° F. shaking water bath for 4 hours. Plates were similarly prepared using the same samples after agitation for 24 hours. All plates were incubated at […]. for 4 days before performing measurements. In addition to inspecting the plates for microbial activity, aliquots of each sample (after 4 hours and after 24 hours) were examined under a microscope for visual speciation.

[3] = test system: yeast and lactic acid producing bacteria; assay: Pour-plate culture on Sabourad-Dextrose Agar (SDA); assay type: cell-based, lactobacillus; conditions: for Plate Showing activity, SDA: serial dilution
Description: as §1

CCCCCCCC(=O)O [Octanoic Acid, Octanoic acid]
Manometer readings ([1]; 10 ppm, t = 0 hours): 0.0 in H2O and 0 in H2O
Manometer readings ([1]; 10 ppm, t = 1 hours): 0.0 in H2O
Manometer readings ([1]; 10 ppm, t = 1.5 hours): 0.0 in H2O
Manometer readings ([1]; 10 ppm, t = 2 hours): 0.0 in H2O
Manometer readings ([1]; 10 ppm, t = 2.5 hours): 0.0 in H2O
Manometer readings ([1]; 10 ppm, t = 3 hours): 0.0 in H2O
Manometer readings ([1]; 10 ppm, t = 3.5 hours): 0.0 in H2O
Manometer readings ([1]; 10 ppm, t = 4 hours): 0.0 in H2O
Manometer readings ([1]; 10 ppm, t = 4.5 hours): 0.0 in H2O
Manometer readings ([1]; 10 ppm, t = 5 hours): 0.0 in H2O
Manometer readings ([1]; 10 ppm, t = 5.5 hours): 0.0 in H2O
Manometer readings ([1]; 10 ppm, t = 6 hours): 0.0 in H2O
Manometer readings ([1]; 10 ppm, t = 6.5 hours): 0.0 in H2O
Manometer readings ([1]; 25 ppm, t = 0 hours): 0.0 in H2O
Manometer readings ([1]; 25 ppm, t = 0.5 hours): 0.25 in H2O
Manometer readings ([1]; 25 ppm, t = 1 hours): 0.0 in H2O
Manometer readings ([1]; 25 ppm, t = 1.5 hours): 0.0 in H2O
Manometer readings ([1]; 25 ppm, t = 2 hours): 0.0 in H2O
Manometer readings ([1]; 25 ppm, t = 2.5 hours): 0.0 in H2O
Manometer readings ([1]; 25 ppm, t = 3 hours): 0.0 in H2O
Manometer readings ([1]; 25 ppm, t = 3.5 hours): 0.0 in H2O
Manometer readings ([1]; 25 ppm, t = 4 hours): 0.0 in H2O
Manometer readings ([1]; 25 ppm, t = 4.5 hours): 0.0 in H2O
Manometer readings ([1]; 25 ppm, t = 5 hours): 0.0 in H2O
Manometer readings ([1]; 25 ppm, t = 5.5 hours): 0.0 in H2O
Manometer readings ([1]; 25 ppm, t = 6 hours): 0.0 in H2O
Manometer readings ([1]; 25 ppm, t = 6.5 hours): 0.0 in H2O
Manometer readings ([1]; 50 ppm, t = 0 hours): 0.0 in H2O
Manometer readings ([1]; 50 ppm, t = 0.5 hours): 0.0 in H2O
Manometer readings ([1]; 50 ppm, t = 1 hours): 0.0 in H2O
Manometer readings ([1]; 50 ppm, t = 1.5 hours): 0.0 in H2O
Manometer readings ([1]; 50 ppm, t = 2 hours): 0.0 in H2O
Manometer readings ([1]; 50 ppm, t = 2.5 hours): 0.0 in H2O
Manometer readings ([1]; 50 ppm, t = 3 hours): 0.0 in H2O
Manometer readings ([1]; 50 ppm, t = 3.5 hours): 0.0 in H2O
Manometer readings ([1]; 50 ppm, t = 4 hours): 0.0 in H2O
Manometer readings ([1]; 50 ppm, t = 4.5 hours): 0.0 in H2O
Manometer readings ([1]; 50 ppm, t = 5 hours): 0.0 in H2O
Manometer readings ([1]; 50 ppm, t = 5.5 hours): 0.0 in H2O
Manometer readings ([1]; 50 ppm, t = 6 hours): 0.0 in H2O
Manometer readings ([1]; 50 ppm, t = 6.5 hours): 0.0 in H2O
Effect on gas-producing microorganisms ([1]; all of the applied dosages (10, 25, 50 ppm), heavy steepwater): effectively reduces all gas-producing microorganisms
Effect on yeast [2]: selectively kills the yeast
Plate Showing activity, SDA ([3]; 10 ppm, sample incubation time 4 hrs): 10^2
Plate Showing activity, SDA ([3]; 10 ppm, sample incubation time 24 hrs): 10^2
Plate Showing activity, SDA ([3]; 25 ppm, sample incubation time 4 hrs): 10^1
Plate Showing activity, SDA ([3]; 25 ppm, sample incubation time 24 hrs): 10^2
Plate Showing activity, SDA ([3]; 50 ppm, sample incubation time 4 hrs): 10^2
Plate Showing activity, SDA ([3]; 50 ppm, sample incubation time 24 hrs): 10^2
Effect on activity of lactobacillus ([3]; test concentrations from 10-50 ppm, 4 hour and 24 hour incubations): do not measurably decrease the activity of lactobacillus
